In US20120029187A1, “HALOALKYLSULFONANILIDE DERIVATIVE” (Nissan Chemical Industries, Ltd., priority 2009, published 2012):

What was measured:
Format in all cases: in vivo
beadstraw = experiment: Test Example 4: herbicidal effect in foliage treatment; details: dose 3.2 g/a, three weeks after application
How it was run: (§1)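 14-day greenhouse-grown plants (25–30° C) sprayed on foliage with diluted EC; dose as g/a; effect graded after 3 weeks.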

redroot pigweed [1] = experiment: as above; details: dose 3.2 g/a, three weeks after application
How it was run: as §1

velvetleaf = experiment: as above; details: dose 3.2 g/a, three weeks after application
How it was run: as §1

barnyardgrass [2] = experiment: as above; details: dose 3.2 g/a, three weeks after application
How it was run: as §1

common lambsquater [3] = experiment: as above; details: dose 3.2 g/a, three weeks after application
How it was run: as §1

large crabgrass [4] = experiment: as above; details: dose 3.2 g/a, three weeks after application
How it was run: as §1

Italian ryegrass [5] = experiment: as above; details: dose 3.2 g/a, three weeks after application
How it was run: as §1

common ragweed [6] = experiment: as above; details: dose 3.2 g/a, three weeks after application
How it was run: as §1

posumbu knotweed [7] = experiment: as above; details: dose 3.2 g/a, three weeks after application
How it was run: as §1

wild oat [8] = experiment: as above; details: dose 3.2 g/a, three weeks after application
How it was run: as §1

giant foxtail [9] = experiment: as above; details: dose 3.2 g/a, three weeks after application
How it was run: as §1

common chickweed [10] = experiment: as above; details: dose 3.2 g/a, three weeks after application
How it was run: as §1

water foxtail [11] = experiment: as above; details: dose 3.2 g/a, three weeks after application
How it was run: as §1

ducksalad [12] = experiment: Test Example 1: herbicidal effects in preemergence treatment under submerged conditions; details: dose 2.52 g/a
How it was run: (§2)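 Flooded-paddy preemergence assay; EC diluted with water, surface-applied at weed seeding; doses g/a; rice transplanted at 2.5 leaves; 0–5 mortality score after 3 weeks.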

bulrush [13] = experiment: as above; details: dose 2.52 g/a
How it was run: as §2

barnyardgrass [14] = experiment: as above; details: dose 2.52 g/a
How it was run: as §2

ducksalad [15] = experiment: Test Example 2: herbicidal effects during the vegetation period under submerged conditions; details: treatment during the vegetation period under submerged conditions; dose 2.52 g/a
How it was run: (§3)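 Barnyardgrass, bulrush and ducksalad were co-sown in alluvial soil flooded to 4 cm and grown in a greenhouse at 25 to 30° C. At the 1- or 2-leaf stage, water-diluted emulsifiable concentrates went onto the water surface at set doses (g/a). Herbicidal effect was scored three weeks later on a graded scale.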

bulrush [16] = experiment: as above; details: treatment during the vegetation period under submerged conditions; dose 2.52 g/a
How it was run: as §3

barnyardgrass [17] = experiment: as above; details: treatment during the vegetation period under submerged conditions; dose 2.52 g/a
How it was run: as §3

transplanted rice = experiment: Test Example 1: preemergence treatment under submerged conditions, effect on crop; details: dose 2.52 g/a
How it was run: as §2

redroot pigweed [18] = experiment: Test Example 3: herbicidal effects in soil treatment; details: dose 3.2 g/a
How it was run: (§4)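 Seeds were sown in sterilized diluvial soil and covered with about 1.5 cm of soil. Compounds, formulated as emulsifiable concentrates and diluted with water, were sprayed evenly over the soil surface at set doses in g/a. Herbicidal effect was scored on a rating scale three weeks later.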

barnyardgrass [19] = experiment: as above; details: dose 3.2 g/a
How it was run: as §4

common lambsquater [20] = experiment: as above; details: dose 3.2 g/a
How it was run: as §4

large crabgrass [21] = experiment: as above; details: dose 3.2 g/a
How it was run: as §4

Italian ryegrass [22] = experiment: as above; details: dose 3.2 g/a
How it was run: as §4

common ragweed [23] = experiment: as above; details: dose 3.2 g/a
How it was run: as §4

posumbu knotweed [24] = experiment: as above; details: dose 3.2 g/a
How it was run: as §4

wild oat [25] = experiment: as above; details: dose 3.2 g/a
How it was run: as §4

giant foxtail [26] = experiment: as above; details: dose 3.2 g/a
How it was run: as §4

common chickweed [27] = experiment: as above; details: dose 3.2 g/a
How it was run: as §4

water foxtail [28] = experiment: as above; details: dose 3.2 g/a
How it was run: as §4

O=C1CC(c2ccccc2)OCN1Cc1ccccc1N(C(=O)OCCCl)S(=O)(=O)C(F)(F)F (centres unmarked) [II-12]
O: beadstraw, herbicidal effect (beadstraw): 4 (mortality of at least 70% and less than 90%)
K: redroot pigweed, herbicidal effect (redroot pigweed [1]): 0 (mortality of less than 5% (almost ineffective))
I: velvetleaf, herbicidal effect (velvetleaf): 3 (mortality of at least 40% and less than 70%)
A: barnyardgrass, herbicidal effect (barnyardgrass [2]): 5 (mortality of 90% or above (nearly complete death))
L: common lambsquater, herbicidal effect (common lambsquater [3]): 0 (mortality of less than 5% (almost ineffective))
D: large crabgrass, herbicidal effect (large crabgrass [4]): 2 (mortality of at least 20% and less than 40%)
H: Italian ryegrass, herbicidal effect (Italian ryegrass [5]): 0 (mortality of less than 5% (almost ineffective))
J: common ragweed, herbicidal effect (common ragweed [6]): 4 (mortality of at least 70% and less than 90%)
M: posumbu knotweed, herbicidal effect (posumbu knotweed [7]): 1 (mortality of at least 5% and less than 20%)
F: wild oat, herbicidal effect (wild oat [8]): 0 (mortality of less than 5% (almost ineffective))
E: giant foxtail, herbicidal effect (giant foxtail [9]): 3 (mortality of at least 40% and less than 70%)
N: common chickweed, herbicidal effect (common chickweed [10]): 3 (mortality of at least 40% and less than 70%)
G: water foxtail, herbicidal effect (water foxtail [11]): 4 (mortality of at least 70% and less than 90%)
C: ducksalad, herbicidal effect (evaluation scale 0-5) (ducksalad [12]): 5 (mortality of 90% or above (nearly complete death))
B: bulrush, herbicidal effect (evaluation scale 0-5) (bulrush [13]): 5 (mortality of 90% or above (nearly complete death))
A: barnyardgrass, herbicidal effect (evaluation scale 0-5) (barnyardgrass [14]): 5 (mortality of 90% or above (nearly complete death))
C: ducksalad, herbicidal effect (evaluation scale 0-5) (ducksalad [15]): 5 (mortality of 90% or above (nearly complete death))
B: bulrush, herbicidal effect (evaluation scale 0-5) (bulrush [16]): 5 (mortality of 90% or above (nearly complete death))
A: barnyardgrass, herbicidal effect (evaluation scale 0-5) (barnyardgrass [17]): 4 (mortality of at least 70% and less than 90%)
a: transplanted rice, effect on crop (evaluation scale 0-5) (transplanted rice): 0 (mortality of less than 5% (almost ineffective))
K: redroot pigweed, herbicidal effect (evaluation scale 0-5) (redroot pigweed [18]): 0 (mortality of less than 5% (almost ineffective))
A: barnyardgrass, herbicidal effect (evaluation scale 0-5) (barnyardgrass [19]): 4 (mortality of at least 70% and less than 90%)
L: common lambsquater, herbicidal effect (evaluation scale 0-5) (common lambsquater [20]): 0 (mortality of less than 5% (almost ineffective))
D: large crabgrass, herbicidal effect (evaluation scale 0-5) (large crabgrass [21]): 4 (mortality of at least 70% and less than 90%)
H: Italian ryegrass, herbicidal effect (evaluation scale 0-5) (Italian ryegrass [22]): 4 (mortality of at least 70% and less than 90%)
J: common ragweed, herbicidal effect (evaluation scale 0-5) (common ragweed [23]): 0 (mortality of less than 5% (almost ineffective))
M: posumbu knotweed, herbicidal effect (evaluation scale 0-5) (posumbu knotweed [24]): 0 (mortality of less than 5% (almost ineffective))
F: wild oat, herbicidal effect (evaluation scale 0-5) (wild oat [25]): 0 (mortality of less than 5% (almost ineffective))
E: giant foxtail, herbicidal effect (evaluation scale 0-5) (giant foxtail [26]): 5 (mortality of 90% or above (nearly complete death))
N: common chickweed, herbicidal effect (evaluation scale 0-5) (common chickweed [27]): 3 (mortality of at least 40% and less than 70%)
G: water foxtail, herbicidal effect (evaluation scale 0-5) (water foxtail [28]): 5 (mortality of 90% or above (nearly complete death))

CC(C)(C)COC(=O)N(c1ccccc1CN1COC(C)(C)CC1=O)S(=O)(=O)C(F)(F)F [II-27]
O: beadstraw, herbicidal effect (beadstraw): 4 (mortality of at least 70% and less than 90%)
K: redroot pigweed, herbicidal effect (redroot pigweed [1]): 0 (mortality of less than 5% (almost ineffective))
I: velvetleaf, herbicidal effect (velvetleaf): 5 (mortality of 90% or above (nearly complete death))
A: barnyardgrass, herbicidal effect (barnyardgrass [2]): 5 (mortality of 90% or above (nearly complete death))
L: common lambsquater, herbicidal effect (common lambsquater [3]): 3 (mortality of at least 40% and less than 70%)
D: large crabgrass, herbicidal effect (large crabgrass [4]): 4 (mortality of at least 70% and less than 90%)
H: Italian ryegrass, herbicidal effect (Italian ryegrass [5]): 3 (mortality of at least 40% and less than 70%)
J: common ragweed, herbicidal effect (common ragweed [6]): 4 (mortality of at least 70% and less than 90%)
M: posumbu knotweed, herbicidal effect (posumbu knotweed [7]): 3 (mortality of at least 40% and less than 70%)
F: wild oat, herbicidal effect (wild oat [8]): 0 (mortality of less than 5% (almost ineffective))
E: giant foxtail, herbicidal effect (giant foxtail [9]): 3 (mortality of at least 40% and less than 70%)
N: common chickweed, herbicidal effect (common chickweed [10]): 3 (mortality of at least 40% and less than 70%)
G: water foxtail, herbicidal effect (water foxtail [11]): 3 (mortality of at least 40% and less than 70%)
C: ducksalad, herbicidal effect (evaluation scale 0-5) (ducksalad [12]): 5 (mortality of 90% or above (nearly complete death))
B: bulrush, herbicidal effect (evaluation scale 0-5) (bulrush [13]): 5 (mortality of 90% or above (nearly complete death))
A: barnyardgrass, herbicidal effect (evaluation scale 0-5) (barnyardgrass [14]): 5 (mortality of 90% or above (nearly complete death))
C: ducksalad, herbicidal effect (evaluation scale 0-5) (ducksalad [15]): 5 (mortality of 90% or above (nearly complete death))
B: bulrush, herbicidal effect (evaluation scale 0-5) (bulrush [16]): 5 (mortality of 90% or above (nearly complete death))
A: barnyardgrass, herbicidal effect (evaluation scale 0-5) (barnyardgrass [17]): 5 (mortality of 90% or above (nearly complete death))
a: transplanted rice, effect on crop (evaluation scale 0-5) (transplanted rice): 0 (mortality of less than 5% (almost ineffective))
K: redroot pigweed, herbicidal effect (evaluation scale 0-5) (redroot pigweed [18]): 0 (mortality of less than 5% (almost ineffective))
A: barnyardgrass, herbicidal effect (evaluation scale 0-5) (barnyardgrass [19]): 5 (mortality of 90% or above (nearly complete death))
L: common lambsquater, herbicidal effect (evaluation scale 0-5) (common lambsquater [20]): 0 (mortality of less than 5% (almost ineffective))
D: large crabgrass, herbicidal effect (evaluation scale 0-5) (large crabgrass [21]): 5 (mortality of 90% or above (nearly complete death))
H: Italian ryegrass, herbicidal effect (evaluation scale 0-5) (Italian ryegrass [22]): 3 (mortality of at least 40% and less than 70%)
J: common ragweed, herbicidal effect (evaluation scale 0-5) (common ragweed [23]): 4 (mortality of at least 70% and less than 90%)
M: posumbu knotweed, herbicidal effect (evaluation scale 0-5) (posumbu knotweed [24]): 3 (mortality of at least 40% and less than 70%)
F: wild oat, herbicidal effect (evaluation scale 0-5) (wild oat [25]): 0 (mortality of less than 5% (almost ineffective))
E: giant foxtail, herbicidal effect (evaluation scale 0-5) (giant foxtail [26]): 4 (mortality of at least 70% and less than 90%)
N: common chickweed, herbicidal effect (evaluation scale 0-5) (common chickweed [27]): 4 (mortality of at least 70% and less than 90%)
G: water foxtail, herbicidal effect (evaluation scale 0-5) (water foxtail [28]): 5 (mortality of 90% or above (nearly complete death))
